Assay results reported in patent publication US20110009343A1, “MODULATORS OF AMYLOID AGGREGATION” (Praecis Pharmaceuticals, Inc., priority 1995, published 2011).
Ends that are not written are not given here. Peptide text beside a SMILES is read from it. * marks the point of attachment. Cholyl = C[C@H](CCC(=O)*)[C@H]1CC[C@H]2[C@@H]3[C@H](O)C[C@@H]4C[C@H](O)CC[C@]4(C)[C@H]3C[C@H](O)[C@]12C; CA = not defined here

How the values were obtained:
cultured neuronal cells = assay: Neurotoxicity of Aβ1-40 preparations with or without modulator (MTT), cell line not specified; type: cell-based; settings: for delay of the appearance of neurotoxicity relative to control: compared with delay of polymerization in nucleation assay
Method: The neurotoxicity of natural β-amyloid peptide aggregates, in either the presence or absence of a β-amyloid modulator, is tested in a cell-based assay using either a rat or human neuronally-derived cell line (PC-12 cells or NT-2 cells, respectively) and the viability indicator 3,(4,4-dimethylthiazol-2-yl)2,5-diphenyl-tetrazolium bromide (MTT). […] MTT (commercially available from Sigma Chemical Co.) is a chromogenic substrate that is converted from yellow to blue in viable cells, which can be detected spectrophotometrically.
To test the neurotoxicity of natural β-amyloid peptides, stock solutions of fresh Aβ monomers and aged Aβ aggregates were first prepared. […] Peptide prepared in this way and tested immediately on cells is referred to as “fresh” Aβ monomer. To prepare “aged” Aβ aggregates, peptide solution was placed in a 1.5 ml Eppendorf tube and incubated at 37° C. for eight days to allow fibrils to form. Such “aged” Aβ peptide can be tested directly on cells or frozen at −80° C. The neurotoxicity of fresh monomers and aged aggregates were tested using PC12 and NT2 cells. PC 12 cells were routinely cultured in Dulbeco's modified Eagle's medium (DMEM) containing 10% horse serum, 5% fetal calf serum, 4 mM glutamine, and 1% gentamycin. NT2 cells were routinely cultured in OPTI-MEM medium (GIBCO BRL CAT. #31985) supplemented with 10% fetal calf serum, 2 mM glutamine and 1% gentamycin. Cells were plated at 10-15,000 cells per well in 90 μl of fresh medium in a 96-well tissue culture plate 3-4 hours prior to treatment. The fresh or aged Aβ peptide solutions (10 μL) were then diluted 1:10 directly into tissue culture medium so that the final concentration was in the range of 1-10 μM peptide. Cells are incubated in the presence of peptide without a change in media for 48 hours at 37° C. For the final three hours of exposure of the cells to the β-AP preparation, MTT was added to the media to a final concentration of 1 mg/ml and incubation was continued at 37° C. Following the two hour incubation with MTT, the media was removed and the cells were lysed in 100 μL isopropanol/0.4N HCl with agitation. An equal volume of PBS was added to each well and the plates were agitated for an additional 10 minutes. Absorbance of each well at 570 nm was measured using a microtiter plate reader to quantitate viable cells.

Aβ1-40 [1] = biological target: T1, Aβ1-40 (Homo sapiens, UniProt P05067); assay: Nucleation assay (turbidity, A405 nm); type: biochemical; settings: for ΔLag (ratio of lag time with test compound to lag time of control) / inhibition at 100 mol % / % Inucl'n (percent reduction in maximum observed turbidity): Table V; for ΔLag (ratio of lag time with test compound to lag time of control): 100 mole % inhibitor relative to Aβ1-40; for inhibition at 100 mol % / % Inucl'n (percent reduction in maximum observed turbidity): 100 mole % inhibitor; for inhibition at 100 mol %: read-out: % Inucl'n (percent reduction in maximum observed turbidity);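 for all read-outs here: synthetic Aβ monomer polymerization followed by turbidity in 96-well plates with continuous shaking, read every 15 minutes over 5 hours, compared against wells lacking test compound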
T1 construct: (β-AP1-40) was obtained commercially from Bachem (Torrance, Calif.); purchased Bachem (Torrance, Calif.)
From the text: The nucleation assay is employed to determine the ability of test compounds to alter (e.g. inhibit) the early events in formation of β-AP fibers from monomeric β-AP. […] The time delay before polymerization of β-AP monomer can be quantified as well as the extent of formation of insoluble fiber by light scattering (turbidity). Polymerization reaches equilibrium when the maximum turbidity reaches a plateau. The turbidity of a solution of natural β-AP in the absence or presence of various concentrations of a β-amyloid modulator compound is determined by measuring the apparent absorbance of the solution at 405 nm (A405 nm) over time. The threshold of sensitivity for the measurement of turbidity is in the range of 15-20 μM β-AP. […] This assay can be performed using stirring or shaking to accelerate polymerization, thereby increasing the speed of the assay. Moreover the assay can be adapted to a 96-well plate format to screen multiple compounds.
HFIP-solubilized peptide is sonicated in a waterbath sonicator for 5 mM at highest setting, then evaporated to dryness under a stream of argon. The peptide film is resuspended in anhydrous dimethylsulfoxide (DMSO) at a concentration of 6.9 mg/ml (25× concentration), sonicated for 5 mM as before, then filtered through a 0.2 micron nylon syringe filter (VWR cat. No. 28196-050). Test compounds are dissolved in DMSO at a 100× concentration. […] Ten microliters of the mixture is then added to the bottom of a well of a Corning Costar ultra low binding 96-well plate (Corning Costar, Cambridge Mass.; cat. No. 2500). Ninety microliters of water is added to the well, the plate is shaken on a rotary shaken at a constant speed at room temperature for 30 seconds, an additional 100 μl of 2×PTL buffer (20 mM NaH2PO4, 300 mM NaCl, pH 7.4) is added to the well, the plate is reshaken for 30 seconds and a baseline (t=0) turbidity reading is taken by measuring the apparent absorbance at 405 nm using a Bio-Rad Model 450 Microplate Reader. The plate is then returned to the shaker and shaken continuously for 5 hours. Turbidity readings are taken at 15 minute intervals.
β-amyloid aggregation in the absence of any modulators results in enhanced turbidity of the natural β-AP solution (i.e., an increase in the apparent absorbance at 405 nm over time).
Accordingly a fold increase in lag time of 1.0 indicates no change in lag time, whereas numbers >1.0 indicate an increase in lag time. The “% inhibition of plateau”, which is a measure of the ability of the compound to decrease the total amount of aggregation, refers to the reduction of the final turbidity in the presence of the test compound expressed as a percent of the control without the test compound.

Aβ(1-40) peptide [2] = biological target: T2, Aβ(1-40) peptide (Homo sapiens, UniProt P05067); assay: Seeded static assay (SSA), Thioflavin-T fluorescence; type: biochemical; settings: inhibitor tested at 100 μM and 10 μM
T2 construct: (β-AP1-40) was obtained commercially from Bachem (Torrance, Calif.); purchased Bachem (Torrance, Calif.)
Method: The peptide was dissolved in 1/25 volume of dimethysulfoxide (DMSO), followed by water to 1/2 volume and 1/2 volume 2×PBS (10×PBS: NaCl 137 mM, KCl 2.7 mM Na2HPO4.7H2O 4.3 mM, KH2PO4 1.4 mM pH 7.2) to a final concentration of 200 μM.
To prepare a stock seed, 1 ml of the above Aβ monomer preparation, was incubated for 8 days at 37° C. and sheared sequentially through an 18, 23, 26 and 30 gauge needle 25, 25, 50, and 100 times respectively. 2 μl samples of the sheared material was taken for fluorescence measurements after every 50 passes through the 30 gauge needle until the fluorescence units (FU) had plateaued (approx. 100-150×).
To prepare a candidate inhibitor, the required amount of candidate inhibitor was weighed out and the stock dissolved in 1×PBS to a final concentration of 1 mM (10× stock). If insoluble, it was dissolved in 1/10 volume of DMSO and diluted in 1×PBS to 1 mM. […]
For the aggregation assay, each sample was set up in triplicate [50 μl of 200 μM monomer, 125 FU sheared seed (variable quantity dependent on the batch of seed, routinely 3-6 μl), 10 μl of 10× inhibitor solution, final volume made up to 100 μl with 1×PBS]. […] The assay was incubated at 37° C. for 6 h, taking 2 μl samples hourly for fluorescence measurements. To measure fluorescence, a 2 μl sample of Aβ was added to 400 μl of Thioflavin-T solution (50 mM Potassium Phosphate 10 mM Thioflavin-T pH 7.5).

Aβ(1-40) peptide [3] = biological target: T2, Aβ(1-40) peptide; assay: Shaken plate aggregation assay (absorbance 405 nm); type: biochemical; settings: % conc relative to Aβ(1-40) as printed in cell
Method: HFIP solubilized peptide was sonicated in a waterbath sonicator for 5 mM at highest setting, then evaporated to dryness under a stream of argon. The peptide film was resuspended in anhydrous dimethylsulfoxide (DMSO) at a concentration of 6.9 mg/ml, sonicated for 5 mM as before, then filtered through a 0.2 micron nylon syringe filter (VWR cat. No. 28196-050).
Candidates were assayed in triplicate. […] Into an ultra low binding 96 well plate (Corning Costar cat. No. 2500, Cambridge Mass.) 100 rtl PTL buffer (150 mM NaCl, 10 mM NaH2PO4; pH 7.4) was aliquotted per well. For each candidate, 10 μl of peptide mixture in DMSO was aliquotted into each of three wells containing buffer. The covered plate was vigorously vortexed on a plate shaker at high speed for 30 seconds. An additional 100 μl of PTL buffer was added to each well and again the plate was vortexed vigorously for 30 sec. Absorbance at 405 nm was immediately read in a plate reader for a baseline reading. The plate was returned to the plate shaker and vortexed at moderate speed for 5 hours at room temperature, with absorbance readings taken at 15-20 mM intervals. Increased absorbance indicated aggregation.

natural β-AP (β-AP1-40) = biological target: T3, natural β-AP (β-AP1-40) (Homo sapiens, UniProt P05067); assay: Optical density (turbidity, A400 nm) aggregation assay; type: biochemical
T3 construct: (β-AP1-40) was obtained commercially from Bachem (Torrance, Calif.); purchased Bachem (Torrance, Calif.)
Method: In one assay, β-AP aggregation was measured by determining the increase in turbidity of a solution of natural β-AP over time in the absence or presence of various concentrations of the modulator. Turbidity of the solution was quantitated by determining the optical density at 400 nm (A400 nm) of the solution over time.
The aggregation of natural β-AP in the absence of modulator was determined as follows. β-AP1-40 was dissolved in hexafluoro isopropanol (HFIP; Aldrich Chemical Co., Inc.) at 2 mg/ml. Aliquots of the HFIP solution (87 μl) were transferred to individual 10 mm×75 mm test tubes. A stream of argon gas was passed through each tube to evaporate the HFIP. To the resulting thin film of peptide, dimethylsulfoxide (DMSO; Aldrich Chemical Co., Inc.) (25 μl) was added to dissolve the peptide. A 2 mm×7 mm teflon-coated magnetic stir bar was added to each tube. Buffer (475 μL of 100 mM NaCl, 10 mM sodium phosphate, pH 7.4) was added to the DMSO solution with stiffing. The resulting mixture was stirred continuously and the optical density was monitored at 400 nm to observe the formation of insoluble peptide aggregates.
Alternatively, β-AP1-40 was dissolved in DMSO as described above at 1.6 mM (6.9 mg/ml) and aliquots (25 μl) were added to stirred buffer (475 μl), followed by monitoring of absorbance at 400 nm […]

β-AP1-40 = biological target: T4, β-AP1-40 (Homo sapiens, UniProt P05067); assay: Static aggregation assay (SDS-PAGE); type: biochemical
T4 construct: (β-AP1-40) was obtained commercially from Bachem (Torrance, Calif.); purchased Bachem (Torrance, Calif.)
Method: In a third assay, β-AP aggregation was measured by visualization of the peptide aggregates using SDS-polyacrylamide gel electrophoresis (SDS-PAGE). In this assay, β-AP solutions were allowed to aggregate over a period of time and then aliquots of the reaction were run on a standard SDS-PAGE gel. Typical solution conditions were 200 μM of β-AP1-40 in PBS at 37° C. for 8 days or 200 μM β-AP1-40 in 0.1 M sodium acetate at 37° C. for 3 days. The peptide aggregates were visualized by Coomassie blue staining of the gel or, for β-AP solutions that included a biotinylated β-AP modulator, by western blotting of a filter prepared from the gel with a streptavidin-peroxidase probe, followed by a standard peroxidase assay. The β-AP aggregates are identifiable as high molecular weight, low mobility bands on the gel, which are readily distinguishable from the low molecular weight, high mobility β-AP monomer or dimer bands.

Aβ1-40 [4] = biological target: T1, Aβ1-40; assay: Seeded extension assay (thioflavin T fluorescence); type: biochemical; settings: Table V; 25 mole % inhibitor
Method: The seeded extension assay can be employed to measure the rate of Aβ fiber formed in a solution of Aβ monomer following addition of polymeric Aβ fiber “seed”. The ability of test compounds to prevent further deposition of monomeric Aβ to previously deposited amyloid is determined using a direct indicator of β-sheet formation using fluorescence. In contrast with the nucleation assay, the addition of seed provides immediate nucleation and continued growth of preformed fibrils without the need for continuous mixing, and thus results in the absence of a lag time before polymerization starts. Since this assay uses static polymerization conditions, the activity of positive compounds in the nucleation assay can be confirmed in this second assay under different conditions and with an additional probe of amyloid structure.
In the seeded extension assay, monomeric Aβ140 is incubated in the presence of a “seed” nucleus (approximately ten mole percent of Aβ that has been previously allowed to polymerize under controlled static conditions). Samples of the solution are then diluted in thioflavin T (Th-T). The polymer-specific association of Th-T with Aβ produces a fluorescent complex that allows the measurement of the extent of fibril formation (Levine, H. (1993) Protein Science 2:404-410). In particular, association of Th-T with aggregated β-AP, but not monomeric or loosely associated β-AP, gives rise to a new excitation (ex) maximum at 450 nm and an enhanced emission (em) at 482 nm, compared to the 385 nm (ex) and 445 nm (em) for the free dye. Small aliquots of the polymerization mixture contain sufficient fibril to be mixed with Th-T to allow the monitoring of the reaction mixture by repeated sampling. A linear growth curve is observed in the presence of excess monomer. The formation of thioflavin T responsive β-sheet fibrils parallels the increase in turbidity observed using the nucleation assay.
To prepare the stock seed, 1 ml of the Aβ monomer preparation, is incubated for approximately 8 days at 37° C. and sheared sequentially through an 18, 23, 26 and 30 gauge needle 25, 25, 50, and 100 times respectively. 2 μl samples of the sheared material is taken for fluorescence measurements after every 50 passes through the 30 gauge needle until the fluorescence units (FU) plateau (approx. 100-150×). Test compounds are prepared by dissolving an appropriate amount of test compound in 1×PBS to a final concentration of 1 mM (10× stock). If insoluble, the compound is dissolved in 1/10 volume of DMSO and diluted in 1×PBS to 1 mM. A further 1/10 dilution is also prepared to test each candidate at both 100 μM and 10 μM.
To perform the seeded extension assay, each sample is set up with 50 μl of 200 μM monomer, 125 FU sheared seed (a variable quantity dependent on the batch of seed, routinely 3-6 μl) and 10 μl of 10× modulator solution. The sample volume is then adjusted to a final volume of 100 μl with 1×PBS. Two concentrations of each modulator typically are tested: 100 μM and 10 μM, equivalent to a 1:1 and a 1:10 molar ratio of monomer to modulator. The controls include an unseeded reaction to confirm that the fresh monomer contains no seed, and a seeded reaction in the absence of any modulators, as a reference to compare against candidate modulators. The assay is incubated at 37° C. for 6 h, taking 2 μl samples hourly for fluorescence measurements. To measure fluorescence, a 2 μl sample of Aβ is added to 400 μl of Thioflavin-T solution (50 mM Potassium Phosphate […] pH 7.5). The samples are vortexed and the fluorescence is read in a 0.5 ml micro quartz cuvette at EX 450 nm and EM 482 nm (Hitachi 4500 Fluorimeter).

T2 sequence (P05067 672-711): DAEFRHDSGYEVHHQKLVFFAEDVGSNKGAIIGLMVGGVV
T1 sequence (P05067 672-711): as above
T4 sequence (P05067 672-711): as above
T3 sequence (P05067 672-711): as above

## CC(C)C[C@H](NC(=O)[C@H](CCCCN)NC(=O)[C@H](CCC(N)=O)NC(=O)[C@H](Cc1c[nH]cn1)NC(=O)[C@H](Cc1c[nH]cn1)NC(=O)[C@@H](NC(=O)[C@H](CCC(=O)O)NC(=O)[C@H](Cc1ccc(O)cc1)NC(=O)CNC(=O)[C@H](CO)NC(=O)[C@H](CC(=O)O)NC(=O)[C@H](Cc1c[nH]cn1)NC(=O)CC[C@@H](C)[C@H]1CC[C@H]2[C@@H]3[C@H](O)C[C@@H]4C[C@H](O)CC[C@]4(C)[C@H]3C[C@H](O)[C@]12C)C(C)C)C(=O)N[C@H](C(=O)N[C@@H](Cc1ccccc1)C(=O)N[C@@H](Cc1ccccc1)C(=O)O)C(C)C [PPI-264, cholyl-Aβ6-20] (Cholyl-HDSGYEVHHQKLVFF-OH)
Cultured neuronal cells; modulator preincubated with Aβ1-40 monomers, applied to cells 48 hours, MTT
  neurotoxicity of Aβ1-40 solution preincubated with modulator: inhibits the neurotoxicity of the Aβ1-40 solution
Aβ1-40 [1]; Table II, 100 mole % vs 50 μM Aβ1-40
  Fold Increase in Lag Time: >4.5 fold
Aβ1-40 [1]; Table III, 10 mole %
  Fold Increase in Lag Time: 2 fold
Aβ1-40 [1]; Table III, 100 mole %
  Fold Increase in Lag Time: >4.5 fold
Aβ1-40 [1]; Table IV, 10 mole %
  Fold Increase in Lag Time: 2.0 fold
Aβ1-40 [1]; equimolar: Aβ1-40 and modulator both 64 μM, FIG. 4 panel A
  aggregation of Aβ1-40 (turbidity): effective at inhibiting aggregation of Aβ140

## CC(C)C[C@H](NC(=O)[C@H](CCCCN)NC(=O)CC[C@@H](C)[C@H]1CC[C@H]2[C@@H]3[C@H](O)C[C@@H]4C[C@H](O)CC[C@]4(C)[C@H]3C[C@H](O)[C@]12C)C(=O)N[C@H](C(=O)N[C@@H](Cc1ccccc1)C(=O)N[C@@H](Cc1ccccc1)C(N)=O)C(C)C [PPI-319, cholyl-Aβ16-20-amide]
Cultured neuronal cells
  delay of the appearance of neurotoxicity relative to control: coincided with the delay in the time at which polymerization of Aβ began
Aβ1-40 [1]; Table IV, 10 mole %
  Fold Increase in Lag Time: 2.7 fold
Aβ1-40 [1]; Table IV, 33 mole %
  Fold Increase in Lag Time: 5.6 fold
Aβ1-40 [1]
  ΔLag (ratio of lag time with test compound to lag time of control): 5.4
  inhibition at 100 mol %: 70%

## CC(C)C[C@H](NC(=O)[C@H](CCCCN)NC(=O)[C@H](CCC(N)=O)NC(=O)CC[C@@H](C)[C@H]1CC[C@H]2[C@@H]3[C@H](O)C[C@@H]4C[C@H](O)CC[C@]4(C)[C@H]3C[C@H](O)[C@]12C)C(=O)N[C@H](C(=O)N[C@@H](Cc1ccccc1)C(=O)N[C@@H](Cc1ccccc1)C(=O)O)C(C)C [PPI-349, cholyl-Aβ15-20]
Cultured neuronal cells
  delay of the appearance of neurotoxicity relative to control: coincided with the delay in the time at which polymerization of Aβ began
Aβ1-40 [1]; Table III, 33 mole %
  Fold Increase in Lag Time: 2.3 fold
Aβ1-40 [1]; Table IV, 10 mole %
  Fold Increase in Lag Time: 2.1 fold
Aβ1-40 [1]; Table IV, 33 mole %
  Fold Increase in Lag Time: 2.6 fold
Aβ1-40 [1]; Table IV, 100 mole %
  Fold Increase in Lag Time: >5.0 fold
Aβ1-40 [1]
  ΔLag (ratio of lag time with test compound to lag time of control): >5
  inhibition at 100 mol %: 100%

## CC(C)C[C@H](NC(=O)[C@H](CCCCN)NC(=O)CC[C@@H](C)[C@H]1CC[C@H]2[C@@H]3[C@H](O)C[C@@H]4C[C@H](O)CC[C@]4(C)[C@H]3C[C@H](O)[C@]12C)C(=O)N[C@H](C(=O)N[C@@H](Cc1ccccc1)C(=O)N[C@@H](Cc1ccccc1)C(=O)O)C(C)C [PPI-350, cholyl-Aβ16-20]
Cultured neuronal cells
  delay of the appearance of neurotoxicity relative to control: coincided with the delay in the time at which polymerization of Aβ began
Aβ1-40 [1]; Table III, 38 mole %
  Fold Increase in Lag Time: 3.4 fold
Aβ1-40 [1]; Table IV, 10 mole %
  Fold Increase in Lag Time: 2.4 fold
Aβ1-40 [1]; Table IV, 100 mole %
  Fold Increase in Lag Time: >5.0 fold
Aβ1-40 [1]
  ΔLag (ratio of lag time with test compound to lag time of control): 1.8
  inhibition at 100 mol %: 72%

## CC(C)C[C@H](NC(=O)CC[C@@H](C)[C@H]1CC[C@H]2[C@@H]3[C@H](O)C[C@@H]4C[C@H](O)CC[C@]4(C)[C@H]3C[C@H](O)[C@]12C)C(=O)N[C@H](C(=O)N[C@@H](Cc1ccccc1)C(=O)N[C@@H](Cc1ccccc1)C(=O)N[C@@H](C)C(=O)O)C(C)C [PPI-368, cholyl-Aβ17-21]
Cultured neuronal cells
  delay of the appearance of neurotoxicity relative to control: coincided with the delay in the time at which polymerization of Aβ began
Aβ1-40 [1]; Table IV, 100 mole %
  Fold Increase in Lag Time: >5.0 fold
Aβ1-40 [1]
  ΔLag (ratio of lag time with test compound to lag time of control): >5
  inhibition at 100 mol %: 100%

## Candidate Inhibitor 224: Aβ1-40 mutant F19F20->T19T20
Aβ(1-40) peptide [2]
  Effect in Seeded Static Assay: ++ (A strong inhibitor of aggregation. The rate of aggregation in the presence of the inhibitor was decreased compared to the control by at least 30-50%)
Aβ(1-40) peptide [3]
  Effect in shaken plate assay: Increased lag

## Candidate Inhibitor 233: Aβ6-20 modified with acetic acid (HDSGYEVHHQKLVFF; also: modified with acetic acid; UniProt P05067 677-691, looked up, fragment)
Aβ(1-40) peptide [2]
  Effect in Seeded Static Assay: ++ (A strong inhibitor of aggregation. The rate of aggregation in the presence of the inhibitor was decreased compared to the control by at least 30-50%)

## N-biotinyl-βAP1-40
Natural β-AP (β-AP1-40); modulator at 1% in natural β-AP1-40 solution
  aggregation of natural β-AP1-40 (turbidity: lag time, slope, plateau): markedly inhibited
Natural β-AP (β-AP1-40); modulator at 5% in natural β-AP1-40 solution
  aggregation of natural β-AP1-40 (turbidity): similarly inhibited aggregation
β-AP1-40; N-biotinyl peptide alone, no natural β-AP
  modulator self-aggregation (high molecular weight aggregates on gel): few if any high molecular weight aggregates were observed
β-AP1-40; mixture of natural β-AP1-40 and modulator
  aggregation of mixture with natural β-AP1-40 (high molecular weight aggregates on gel): reduced amounts of the peptide mixture associated into high molecular weight aggregates

## PPI-426: CA-FFVLA-oh, rearranged Aβ17-21
Cultured neuronal cells
  delay of the appearance of neurotoxicity relative to control: coincided with the delay in the time at which polymerization of Aβ began

## PPI-429: CA-FFV-oh ({CA}-Phe-Phe-Val-OH; reading uncertain; also: printed as PPI-429: CA-FFV-oh)
Aβ1-40 [1]
  % Inucl'n (percent reduction in maximum observed turbidity): −33%
  ΔLag (ratio of lag time with test compound to lag time of control): 2.2
Aβ1-40 [4]
  % Iext'n (percent reduction of thioflavin-T fluorescence): 7%

## PPI-430: CA-FFVL-oh ({CA}-FFVL-OH; reading uncertain; also: printed as PPI-430: CA-FFVL-oh)
Aβ1-40 [1]
  % Inucl'n (percent reduction in maximum observed turbidity): 33%
  ΔLag (ratio of lag time with test compound to lag time of control): 4.1
Aβ1-40 [4]
  % Iext'n (percent reduction of thioflavin-T fluorescence): 75%
